US20090017489A1, “Methods For Modulating The Development Of Dopamine Neuron By The Dopamine D2 Receptor And Compositions Thereof” (Korea University Industry And Academy Cooperation Foundation, priority 2006, published 2009)
“Also recorded” adds a separate entry of the source.

Experiments:
[1] = system: TH-positive neurons in primary mesencephalic cultures from WT and D2R−/− mice; test: MPP+ treatment of primary mesencephalic dopaminergic neuronal cultures, TH-positive cell counting; type: cell-based, mouse; details: for number of surviving TH-positive neurons: 10 μM MPP+, 24 hours
From the text: (§1) D2R−/− mice and wild-type (WT) mice were obtained by mating D2R−/− mice and heterozygous mice, purchased from Institut de Genetiqul et Biologie Moleculaire et celluaire (Strasbourg, France), and their genotypes were identified by Southern hybridization analyses (An J J et al., Mol Cell Neurosci. 2004, 25: 732-741). Insemination was confirmed by vaginal plug and considered to be embryonic day 0 (E0). Pregnant mothers were killed at E14 in accordance with Society for Neuroscience Guidelines. To prepare primary mesencephalic neuronal cultures, the mesencephalon dissected from 14 day gestation mouse embryo was incubated with 0.1% of trypsin in HBSS for 10 minutes at 37° C. and triturated with a constricted Pasteur pipette in high-glucose DMEM media supplemented with 10% FBS (Invitrogen, San Diego, Calif.), 1.4 mM L-glutamine, and 6.0 g/L glucose. The neurons were plated at 1.0×10^5 cells per 18×18 mm coverslip (Marienfeld, Lauda-Konigshofen, Germany) or 2.0×10^5 cells per six-well plates precoated with 50 μg/ml poly-D-lysine and 2 μg/ml laminin (Sigma, St. Louis, Mo.). The neurons were maintained at 37° C. in a humidified 5% CO2 atmosphere in Neurobasal media supplemented with B27 and GlutaMax-1.
To determine whether the absence of dopamine D2 receptor (D2R) might affect the number of dopaminergic neurons, dopaminergic neurons, which were isolated from mesencephalons of wild-type (WT) and D2R−/− embryonic mice, were incubated on slides with 1.0×10^5 cells and precoated with 50 μg/ml poly-D-lysine and 2 μg/ml laminin (Sigma, St. Louis, Mo.) at 37° C. for 5 days, followed by performing immunofluorescence staining. […] Using a microscope equipped with an metamorph imaging system (Universal Imaging Corporation, West Chester, Pa.) in 20 randomly selected fields per each slide, cell counts and morphometric analysis were made in randomly selected unbiased counting frames (>40 frames out of 81 grids were counted). […]

[2] = system: dopamine D1 receptor (D1R)-mediated Nurr1 activation; test: NurRE-dependent luciferase reporter gene activation assay in HEK293T cells transfected with D1R; type: cell-based
Procedure: To investigate the effect of D2R on the number of TH-positive neurons and Nurr1 expression, Nur response element (NurRE)-dependent reporter gene activation assay was carried out to determine whether or not D2R activation might induce Nurr1 activation (Philips et al, Mol Cell Biol., 1997, 17:5946-5951; Maira et al, Mol Cell Biol., 1999, 19:7549-7557). HEK293T cells distributed from Korean cell line Bank were cultured in DMEM (Dulbeco's modified eagle's medium; Invitrogen, Carlsbad, Calif.) supplemented with 10% FBS (fetal bovine serum; Invitrogen, Carlsbad, Calif.) and transfected the same with dopamine receptors, Nurr1, and NurRE gene using a jetPEI transfection reagent (Qbiogene, Carlsbad, Calif.). In detail, 5˜7×10^5 cells confluent monolayers of HEK293 cells were transfected with 1.5 μg of pSV-D2R or pSV-D1R, 1.5 μg of pCMX-Nurr1, 1.5 μg of pXP1-luc containing POMC gene promoter and NurRE (pXP1-NurRE-luc), and 0.5 μg of pCH110. […] After treatment, the cells were lysed and assayed for luciferase activity using the luciferase assay system (Promega, Madison, Wis.), and luminescence was measured using a 96-well luminometer (Microlumat; EG & Berthold, Bad Wilbad, Germany).

[3] = system: D2R-mediated Nurr1 activation; test: NurRE-dependent luciferase reporter gene activation assay in HEK293T cells transfected with D2R, Nurr1 and NurRE-luc; type: cell-based
Procedure: To investigate the effect of D2R on the number of TH-positive neurons and Nurr1 expression, Nur response element (NurRE)-dependent reporter gene activation assay was carried out to determine whether or not D2R activation might induce Nurr1 activation (Philips et al, Mol Cell Biol., 1997, 17:5946-5951; Maira et al, Mol Cell Biol., 1999, 19:7549-7557). HEK293T cells distributed from Korean cell line Bank were cultured in DMEM (Dulbeco's modified eagle's medium; Invitrogen, Carlsbad, Calif.) supplemented with 10% FBS (fetal bovine serum; Invitrogen, Carlsbad, Calif.) and transfected the same with dopamine receptors, Nurr1, and NurRE gene using a jetPEI transfection reagent (Qbiogene, Carlsbad, Calif.). In detail, 5˜7×10^5 cells confluent monolayers of HEK293 cells were transfected with 1.5 μg of pSV-D2R or pSV-D1R, 1.5 μg of pCMX-Nurr1, 1.5 μg of pXP1-luc containing POMC gene promoter and NurRE (pXP1-NurRE-luc), and 0.5 μg of pCH110. In case of the transfection with Ras dominant-negative mutant, cells were transfected with 1.0 μg of pMT-RasN17 or pSK-null vector, 1.0 μg of pSV-D2R, 1.0 μg of pCMX-Nurr1, 1.0 μg of pXP1-NurRE-luc, and 0.5 μg of pCH110. After 3 hours, the transfection mixture was replaced with fresh growth medium. Assays were performed 48 hours after transfection. Cells were preincubated overnight in serum-free growth medium before treatment with agonists. The cells were treated with various concentrations of dopamine or SKF38393, respectively, for 6 hours at 37° C. with or without preincubation of haloperidol (1 μM for 5 minutes), pertussis toxin (PTX) (100 ng/ml for 12 hours), H-89 (1 μM for 20 minutes), and PD98059 (10 μM for 30 minutes). After treatment, the cells were lysed and assayed for luciferase activity using the luciferase assay system (Promega, Madison, Wis.), and luminescence was measured using a 96-well luminometer (Microlumat; EG & Berthold, Bad Wilbad, Germany).
The data obtained were fitted to a sigmoid curve with a variable slope factor using nonlinear squares regression in GraphPad Prism software, which is shown in FIG. 5.

[4] = system: phosphorylated ERK (p-ERK) in mesencephalic neurons from WT and D2R−/− mice; test: ERK phosphorylation in mesencephalic neurons (immunofluorescence and Western blot); type: cell-based, mouse; details: Western blot
Procedure: Then, cells were fixed in the same manner as in EXAMPLE 2, a rabbit polyclonal anti-TH (1:1000; Pel-Freez) and a mouse monoclonal anti-phosphorylated ERK (p-ERK) (E10; 1:200; Cell Signaling, Beverly, Mass.) were reacted at 4° C. for 12 hours. Thereafter, the resultant neurons were stained at RT for 1 hour with two fluorescent antibodies, that is, Alexa Fluor 568 goat anti-rabbit IgG and Alexa Fluor 488 goat anti-mouse IgG (1:200; Molecular Probes, Eugene, Oreg.). After staining, ERK-positive neurons among TH-positive neurons were examined.
To observe immunofluorescent images, a confocal microscope system (Nikon Eclipse fluorescence microscope, TE2000-U, Nikon, Kanagawa, Japan; Ultraview RS confocal scanner, Perkin elmer, Wellesley, Mass.) or a fluorescence microscope (Axiovert 2000 microscope with epifluorescence unit, Zeiss, Zena, Germany) was used. The Western blot analysis was carried out in the following conditions. […] The resultant mixture was homogenized with probe type sonicator on ice, and followed by centrifugation at 13,000×g for 10 minutes at 4° C. Protein (50 μg), as measured by Bradford protein assay, was subjected to electrophoresis on 10% SDS-PAGE. […]

[5] = system: TH-positive dopaminergic neurons in mesencephalic cultures from WT and D2R−/− mice; test: Number of TH-positive neurons and neurite length in primary mesencephalic cultures; type: cell-based, mouse
From the text: as §1
To determine whether the absence of dopamine D2 receptor (D2R) might affect the number of dopaminergic neurons, dopaminergic neurons, which were isolated from mesencephalons of wild-type (WT) and D2R−/− embryonic mice, were incubated on slides with 1.0×10^5 cells and precoated with 50 μg/ml poly-D-lysine and 2 μg/ml laminin (Sigma, St. Louis, Mo.) at 37° C. for 5 days, followed by performing immunofluorescence staining. The immunofluorescence staining was performed such that primarily cultured dopaminergic neurons were fixed with 4% paraformaldehyde for 20 minutes at room temperature (RT) and blocked for 1 hour in PBS containing 5% normal horse serum and 0.2% Triton X-100. Then, the neurons were incubated with a rabbit polyclonal anti-tyrosine hydroxylase (TH) (1:1000; Pel-Freez, Rogers, Ark.) in PBS containing 1% normal horse serum and 0.2% Triton X-100 at 4° C. for over 16 hours, and followed by staining according to avidin-biotin immunohistochemical procedures (Vector Laboratories, Burlingame, Calif.). Using a microscope equipped with an metamorph imaging system (Universal Imaging Corporation, West Chester, Pa.) in 20 randomly selected fields per each slide, cell counts and morphometric analysis were made in randomly selected unbiased counting frames (>40 frames out of 81 grids were counted).
Thereafter, the treated cells were fixed and stained in the same manner as in EXAMPLE 2 for counting the number TH-positive cells and analyzing the neuritic shape (FIG. 6A).
Thereafter, the neurons were treated with 1 μM quinpirol.

[6] = PD98059 treatment versus control without PD98059
[7] = D2R−/− mice, 1 μM haloperidol for 5 minutes then 1 μM quinpirole, versus control without haloperidol
[8] = WT and D2R−/− mice treated with haloperidol

Compound: C[n+]1ccc(-c2ccccc2)cc1 [MPP^+, 1-Methyl-4-phenylpyridinium]
- loss of dopaminergic neurons ([1]; 1 to 10 μM MPP+ for 24 hours, D2R−/− versus WT cultures): more significant loss of dopaminergic neurons in the D2R−/− mice than in WT mice
- number of surviving TH-positive neurons ([1]; D2R−/− mice cultures): 40%
- number of surviving TH-positive neurons ([1]; WT mice cultures): 54%

Compound: Oc1cc2c(c(Cl)c1O)CCNCC2c1ccccc1 (centres unmarked) [SKF81297]
- Nurr1 activation by D1R-specific agonist [2]: no significant change

Compound: COc1cccc(-c2cc(=O)c3ccccc3o2)c1N [PD98059]
- Nurr1 activation by dopamine in the presence of MEK inhibitor ([3]; PD98059 10 μM for 30 minutes): noticeably reduced
- phosphorylated ERK after quinpirole with MEK inhibitor ([4]; 50 μM PD98059 for 30 minutes plus quinpirole): neither WT nor D2R−/− neurons showed phosphorylated ERK
- average length of neurites [5, 6]: reduced
- number of TH-positive neurons [5, 6]: slightly reduced

Compound: O=S(=O)(NCCNC/C=C/c1ccc(Br)cc1)c1cccc2cnccc12 [H-89]
- D2R-induced NurRE-dependent luciferase activation in the presence of PKA inhibitor ([3]; H-89 1 μM for 20 minutes): did not give rise to a significant change

Compound: NCCc1ccc(O)c(O)c1 [dopamine]
- luciferase activation relative to control group ([3]; HEK293T transfected with D2R, Nurr1 and NurRE-luc, dopamine at various concentrations, 6 hours): about 180%
- change in luciferase activation ([3]; dopamine, in the absence of Nurr1 or D2R): no change in the activation

Compound: O=C(CCCN1CCC(O)(c2ccc(Cl)cc2)CC1)c1ccc(F)cc1 [haloperidol]
- D2R-mediated Nurr1 activation by dopamine after antagonist ([3]; haloperidol 1 μM preincubation for 5 minutes): reduced; also recorded: inhibited or decreased
- phosphorylated ERK after quinpirole with antagonist ([4]; 1 μM haloperidol for 5 minutes plus quinpirole): neither WT nor D2R−/− neurons showed phosphorylated ERK
- neuritic extension [5, 7]: no changes
- number of TH-positive neurons [5, 7]: no changes
- average length of the neurites [5, 8]: decreased or showed insignificant changes
- number of dopaminergic neurons [5, 8]: decreased or showed insignificant changes
